The numbers were not newly measured in patent US7902187B2, “6-substituted 2-(benzimidazolyl)purine and purinone derivatives for immunosuppression” (Wyeth LLC, priority 2006, dated 2011), which cites them from elsewhere.

Read-outs that look alike come from different tables or passages of the source.

For series [1] the following is noted: murine model of heart transplantation; cited from earlier work.
For series [2] the following is noted: primate model of kidney transplantation; cited from earlier work.

As for `C[C@@H]1CCN(C(=O)CC#N)C[C@@H]1N(C)c1ncnc2[nH]ccc12` [CP-690,550], the animal survival entry in series [1] and in series [2] was “prolong animal survival” in each case.
